In the supplement of paper PMC5844555:

Key:
Experiment in all cases: 3' UTR reporter interaction score (median-centred robust z-score of log2 firefly/Renilla activity); higher = less repression of the 3' UTR reporter
Settings in all cases: HEK293T; 48 h
[1] = system: MYC
Method in brief: (§1)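 HEK293T cells were seeded at 10,000 per well in 96-well plates and co-transfected with DharmaFECT Duo, using 100 ng of a firefly luc2P reporter carrying the gene's 3' UTR, 20 ng of Renilla pRL-TK control and 2.5 pmol of miRNA mimic. Both luciferase activities were measured 48 h after transfection. The interaction score is the log-transformed firefly/Renilla ratio, converted to a per-plate robust z-score from the median and median absolute deviation and then median-centred per miRNA, with more negative values indicating interaction. Scores were averaged across at least two independent screens.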

[2] = system: TP53
Method in brief: as §1

[3] = system: FBXW7
Method in brief: as §1

[4] = system: MYCN
Method in brief: as §1

[5] = system: NOTCH1
Method in brief: as §1

[6] = system: RB1
Method in brief: as §1

[7] = system: MYB
Method in brief: as §1

[8] = system: ZEB2
Method in brief: as §1

[9] = system: PHF6
Method in brief: as §1

[10] = system: MYT1L
Method in brief: as §1

[11] = system: PHOX2B
Method in brief: as §1

[12] = system: BRCA2
Method in brief: as §1

[13] = system: EZH2
Method in brief: as §1

[14] = system: HRAS
Method in brief: as §1

Sequence	3' UTR reporter interaction score [1]	3' UTR reporter interaction score [2]	3' UTR reporter interaction score [3]	3' UTR reporter interaction score [4]	3' UTR reporter interaction score [5]	3' UTR reporter interaction score [6]	3' UTR reporter interaction score [7]	3' UTR reporter interaction score [8]	3' UTR reporter interaction score [9]	3' UTR reporter interaction score [10]	3' UTR reporter interaction score [11]	3' UTR reporter interaction score [12]	3' UTR reporter interaction score [13]	3' UTR reporter interaction score [14]
AACCAGCACCCCAACUUUGGAC	0.864	0.244	-7.19	0.781	-0.388	-1.29	-1.09	1.09	-2.04	0.0434	-0.923	-0.175	1.33	0.0381
AACCCGUAGAUCCGAACUUGUG	0.114	1.86	-0.349	-0.886	-0.555	0.915	0.491	-1.13	-0.96	-0.266	-4.05	0.951	0.142	0.79
AACCCGUAGAUCCGAUCUUGUG	1.06	-0.247	-0.496	0.392	0.552	-0.24	1.14	-0.0662	-0.973	-0.114	-3.27	0.969	-0.241	0.465
AACGCACUUCCCUUUAGAGUGU	-2.85	-0.139	0.611	0.243	0.0977	1.02	-0.0921	0.153	-1.36	1.01	-0.209	0.843	0.293	-0.716
AACGCGCUUCCCUAUAGAGGG	-0.143	1.12	0.0883	-1.41	0.382	0.667	-0.83	-0.982	0.0798	-0.267	-0.021	0.644	1.38	-1.1
AAGCAGCUGCCUCUGAGGC	1.09	0.187	-2.92	0.924	-0.304	0.293	-1.27	1.09	0.632	-4.53	0.758	-0.823	-1.03	-0.819
AAGCCUGCCCGGCUCCUCGGG	0.642	-1.82	0.255	-0.588	-0.439	-0.201	0.0778	1.11	-0.0107	-0.815	0.478	0.422	-0.223	0.291
AAGCUGCCAGUUGAAGAACUGU	-0.252	-0.365	-0.354	-0.291	1.36	0.935	0.23	0.607	-0.206	-1.31	0.0996	-0.407	-0.11	0.475
AAGGAGCUCACAGUCUAUUGAG	-0.238	-1.32	0.924	1.38	-1.13	0.838	1.45	1.75	-0.478	0.551	0.65	-1.14	-0.897	0.291
AAGUGCUGUCAUAGCUGAGGUC	0.212	0.0875	0.564	1.22	-0.478	1.65	-0.62	1.38	0.918	-0.819	-0.113	0.528	-0.608	0
AAGUGCUUCCUUUUAGAGGGUU	-0.869	-1	0.635	0.896	0.466	1.62	-0.72	0.00821	1.07	0.457	0.633	-0.82	-1.25	-0.113
AAUAAUACAUGGUUGAUCUUU	0.609	-0.77	-0.364	-0.572	-0.442	-0.0974	0.0772	-1.86	1.16	-0.318	-0.121	-0.146	0.433	-0.598
AAUAUUAUACAGUCAACCUCU	0.0661	0.359	0.854	1.48	3.57	-1.29	-0.218	0.391	-1.02	0	0.408	-1.63	-0.324	-0.762
AAUCAUACACGGUUGACCUAUU	-0.182	-0.0204	0.544	0.277	-0.221	-0.342	0.393	-1.95	-0.4	0.0899	-0.199	-0.246	0.236	-0.256
AAUCAUACAGGGACAUCCAGUU	0.273	-0.0235	0.98	-0.994	-0.77	-0.451	0.0607	-0.725	-0.265	0.474	1.38	-0.401	1.15	0.163
AAUCCUUGGAACCUAGGUGUGAGU	1.33	-0.232	-0.342	0.204	-0.594	-0.422	0.656	-0.171	0.0671	-4.11	-0.851	0.643	0.207	0.739
AAUCCUUUGUCCCUGGGUGAGA	0.916	-0.735	0.455	0.972	1.42	0.615	-0.9	0.439	-0.0711	-2.16	-0.304	0.853	-0.257	0.171
AAUGACACGAUCACUCCCGUUGA	0.235	0.759	0.139	-0.341	-1.98	-0.373	-0.032	0.878	-0.214	-0.645	-0.699	-1.49	0.0535	0.792
AAUGGCGCCACUAGGGUUGUGCA	-0.44	-0.436	-0.576	0.439	-0.589	-0.957	0.208	0.407	0.0523	-0.00801	1.04	-0.437	-0.534	-0.363
